We go through three molecules from ChEMBL document CHEMBL3603796, “Lipid-lowering polyketides from a soft coral-derived fungus Cladosporium sp. TZP29” (Bioorg Med Chem Lett, 2015).

The structures appear in SMILES notation. Active and inactive are the calls of the source. The rule behind the calls is not given here.

For one data set, the system named is HepG2. Put plainly: Lipid lowering activity in human HepG2 cells assessed as decrease in oleic acid elicited lipid accumulation after 6 hrs by oil-red O staining method. The data set is classed as functional, cell-based. The conditions noted are these: HepG2, 6 h.
A further data set concerns SMMC-7721. Put plainly: Cytotoxicity against human SMMC7721 cells up to 50 uM by SRB assay. It counts as cell-based. (In general: Sulforhodamine B stains cellular protein and so reports cell mass.)
A further data set concerns A549. The data set can be described thus: Cytotoxicity against human A549 cells up to 50 uM by SRB assay. It counts as cell-based.
The subject of a further data set is HeLa. Put plainly: Cytotoxicity against human HeLa cells up to 50 uM by SRB assay. The data set is classed as cell-based.
Another data set has as its system Amphibalanus amphitrite. The data set can be described thus: Antifouling activity against Balanus amphitrite by settlement inhibition assay. The data set is classed as functional, organism-based.
A further data set relates to Micrococcus luteus. The data set can be described thus: Antibacterial activity against Micrococcus luteus by disc diffusion assay. It counts as functional, organism-based. (A growth-free zone around the sample is the usual read-out of agar diffusion tests.)
The nature of data set [1]: Antifouling activity against Bugula neritina by settlement inhibition assay. It counts as functional.
A further data set deals with Laribacter hongkongensis. Put plainly: Antibacterial activity against Laribacter hongkongensis by disc diffusion assay. It counts as functional.
The next data set concerns uncultured Ruegeria sp. Put plainly: Antibacterial activity against Ruegeria sp. by disc diffusion assay. The data set is classed as functional.

By IC50 is commonly meant the concentration that gives 50% inhibition. On to `CC[C@H](C)C(=O)O[C@H]1C[C@@H](C)C=C2C=C[C@H](C)[C@H](CC[C@@H]3C[C@@H](O)CC(=O)O3)[C@H]21` [LOVASTATIN], for which, in the data set on HepG2, the IC50 was 8.3 µM.
`C[C@@H](O)CCCCCC[C@H]1OC(=O)C[C@@H]1O`: the Activity result with SMMC-7721, in the data set on A549 and in the data set with HeLa was “Non-toxic” each time.
On to `C[C@@H](O)CCCCC[C@H](O)[C@@H]1C=CC(=O)O1`, for which the Activity result with SMMC-7721, in the data set on A549 and in the data set on HeLa was “Non-toxic” in each case. Further, the outcome (with Amphibalanus amphitrite; in the data set on Micrococcus luteus; in data set [1]; in the data set with Laribacter hongkongensis; in the data set with uncultured Ruegeria sp.) was inactive.
